Legend:
Type in all cases: cell-based
virus HIV 1 [1] = assay: Protocol 1: pre-treatment of human lymphocytes before HIV 1 infection, reverse transcriptase activity in culture supernatant
Experimental: (§1) Pour chacun des trois protocoles qui suivent, on a préparé une solution mère de (5-amino-2-(4-méthyl-1-pipéridinyl)phényl)-(4-chlorophényl)-méthanone à 100 mg/l dans de l'eau physiologique contenant 9 g/l de chlorure de sodium et acidifiée à pH=3 par de l'acide chlorhydrique. La solution mère est ensuite diluée dans un milieu RPMI 1640 jusqu'à la concentration désirée. La solution ainsi obtenue est stérilisée par filtration sur membrane "MILLIPORE" ayant un diamètre moyen de pores de 0,22 m.
(§2) A partir de cellules T lymphoblastoïdes (lignée CEM) infectées par un virus HIV et donc susceptibles de produire ledit virus HIV, on recueille ce dernier par des moyens appropriés à partir d'un surnageant de culture desdites cellules.
(§3) Les cellules utilisées sont des lymphocytes de sujets normaux HIV négatifs isolés à partir du sang périphérique par gradient de Ficoll puis stimulés pendant trois jours par de la phytohémagglutinine p (en abrégé pHAp) avant leur utilisation.
Les lymphocytes sont ensuite cultivés dans le milieu RPMI 1640 contenant 10 % de sérum de veau foetal, 10 % d'interleukine II, 2 g/ml de polybrène, 1 % de glutamine, 1 % d'antibiotiques et une dilution au 1/2500 de sérum anti-interféron humain. […]

virus HIV 1 [2] = assay: Protocol 2: treatment of human lymphocytes during HIV 1 adsorption, reverse transcriptase activity in culture supernatant
Experimental: as §1, §2, §3
(§4) Les lymphocytes sont ensuite cultivés dans le milieu RPMI 1640 contenant 10 % de sérum de veau foetal, 10 % d'interleukine II, 2 g/ml de polybrène, 1 % de glutamine, 1 % d'antibiotiques et une dilution au 1/2500 de sérum anti-interféron humain.
(§5) La production du virus HIV par des cellules T humaines traitées ou non par le produit a été régulièrement suivie par mesure de l'activité transcriptase inverse, représentative de la réplication virale, et présente dans 1 ml de surnageant de culture. On concentre 100 fois 1 ml de surnageant par ultracentrifugation puis on détermine l'activité enzymatique de cet échantillon dans 50 l d'un mélange réactionnel contenant 50 mM de tampon tris (hydroxyméthylaminométhane) de pH=7,9, 20 mM de KCl, 5 mM de MgCl₂, 1 mM de 1,4-dithiothréitol, 0,05 unité de densité optique par ml d'acide polyadénylique (5′), 0,05 unité de densité optique par ml d'acide oligodéoxythymidylique 12-18, 5 Ci de ³HTTP et 0,1 % de Triton X 100. Après une heure d'incubation à 37°C, les produits acido-insolubles sont précipités par de l'acide trichloracétique à 20 %, filtrés sur "MILLIPORE" 0,45 m, puis la radioactivité contenue dans ces produits de réaction est mesurée à l'aide d'un compteur à scintillation Kontron.
(§6) Les figures 1 à 3 qui représentent l'activité transcriptase inverse (A exprimée en cpm/ml) en fonction du temps (t exprimé en nombre de jours), comprennent chacune quatre courbes : T représentant l'activité transcriptase inverse dans la culture témoin. C₁ représentant l'activité transcriptase inverse pour la culture traitée par une dose de 0,1 g/ml de produit. C₂ représentant l'activité transcriptase inverse pour la culture traitée par une dose de 0,05 g/ml de produit, et C₃ représentant l'activité transcriptase inverse pour la culture traitée par une dose de 0,01 g/ml de produit. […]

virus HIV 1 [3] = assay: Protocol 3: treatment of human lymphocytes after HIV 1 adsorption (post-treatment), reverse transcriptase activity in culture supernatant
Experimental: as §1, §2, §3, §4, §5, §6

SMILES: CC1CCN(c2ccc(N)cc2C(=O)c2ccc(Cl)cc2)CC1 [produit, (5-amino-2-(4-méthyl-1-pipéridinyl)phényl)-(4-chlorophényl)-méthanone]
- inhibition du pouvoir infectieux du virus HIV 1 (activité transcriptase inverse) (virus HIV 1 [1]; pre-treatment 18 h before infection, human lymphocytes, whatever the dose (0,1, 0,05, 0,01 µg/ml), figure 1): inhibition partielle
- retard dans l'apparition du pic de transcriptase inverse (virus HIV 1 [1]; pre-treatment, whatever the dose, versus untreated control culture): retard important
- inhibition du pouvoir infectieux du virus HIV 1 (virus HIV 1 [2]; during viral adsorption, 0,1 µg/ml (curve C1)): maximale
- inhibition du pouvoir infectieux du virus HIV 1 (virus HIV 1 [2]; during viral adsorption, 0,01 µg/ml (curve C3)): partielle
- inhibition du pouvoir infectieux du virus HIV 1 (virus HIV 1 [2]; during viral adsorption, 0,05 µg/ml (curve C2)): partielle
- inhibition du pouvoir infectieux du virus HIV 1 pour les cellules T humaines (virus HIV 1 [2]; product present during viral adsorption (1 h, 37°C), various concentrations (curves C1 to C3), figure 2): inhibition très significative
- inhibition de l'infection virale (virus HIV 1 [3]; post-treatment for three passages after adsorption, 0,1 µg/ml (curve C1), figure 3): très significative
- inhibition de l'infection virale (virus HIV 1 [3]; post-treatment, 0,01 µg/ml (curve C3)): partielle
- inhibition de l'infection virale (virus HIV 1 [3]; post-treatment, 0,05 µg/ml (curve C2)): partielle
- rapport des pics des courbes T et C₁ (activité transcriptase inverse) (virus HIV 1 [3]; post-treatment, 0,1 g/ml, control peak / treated peak): ~10

— patent EP0307279A2, “Use of (5-amino-2-(4-methyl-1-piperidinyl)phenyl)-(4-chlorophenyl)methanone as an antiviral agent” (FOURNIER INNOVATION ET SYNERGIE, priority 1987, dated 1989)
